Experimental data: PMC8711236 (Biochemistry, 2021)
pKd: −log10 of the molar value.

Molecular target: Cytochrome P450 3A4 (CYP3A4) (Homo sapiens, UniProt P08684)
Test: UV-vis spectral equilibrium titration
Format: binding

Sequence of Cytochrome P450 3A4 (CYP3A4) (P08684 14-503): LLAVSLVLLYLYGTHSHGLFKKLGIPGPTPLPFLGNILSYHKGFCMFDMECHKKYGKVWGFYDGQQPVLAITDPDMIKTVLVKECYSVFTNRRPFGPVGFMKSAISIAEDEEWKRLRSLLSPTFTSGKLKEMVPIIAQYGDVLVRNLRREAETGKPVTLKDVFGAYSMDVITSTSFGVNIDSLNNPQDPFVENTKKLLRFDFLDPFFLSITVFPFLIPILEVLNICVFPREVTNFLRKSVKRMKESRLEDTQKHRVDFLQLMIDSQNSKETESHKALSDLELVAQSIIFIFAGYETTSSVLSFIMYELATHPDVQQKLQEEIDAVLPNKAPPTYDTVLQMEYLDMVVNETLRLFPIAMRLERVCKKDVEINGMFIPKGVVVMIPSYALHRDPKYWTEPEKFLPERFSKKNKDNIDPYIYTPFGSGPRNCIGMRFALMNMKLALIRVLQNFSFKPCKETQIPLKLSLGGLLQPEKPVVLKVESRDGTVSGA
Sequence of Cytochrome P450 3A4 (CYP3A4) (P00388 2-678 partner): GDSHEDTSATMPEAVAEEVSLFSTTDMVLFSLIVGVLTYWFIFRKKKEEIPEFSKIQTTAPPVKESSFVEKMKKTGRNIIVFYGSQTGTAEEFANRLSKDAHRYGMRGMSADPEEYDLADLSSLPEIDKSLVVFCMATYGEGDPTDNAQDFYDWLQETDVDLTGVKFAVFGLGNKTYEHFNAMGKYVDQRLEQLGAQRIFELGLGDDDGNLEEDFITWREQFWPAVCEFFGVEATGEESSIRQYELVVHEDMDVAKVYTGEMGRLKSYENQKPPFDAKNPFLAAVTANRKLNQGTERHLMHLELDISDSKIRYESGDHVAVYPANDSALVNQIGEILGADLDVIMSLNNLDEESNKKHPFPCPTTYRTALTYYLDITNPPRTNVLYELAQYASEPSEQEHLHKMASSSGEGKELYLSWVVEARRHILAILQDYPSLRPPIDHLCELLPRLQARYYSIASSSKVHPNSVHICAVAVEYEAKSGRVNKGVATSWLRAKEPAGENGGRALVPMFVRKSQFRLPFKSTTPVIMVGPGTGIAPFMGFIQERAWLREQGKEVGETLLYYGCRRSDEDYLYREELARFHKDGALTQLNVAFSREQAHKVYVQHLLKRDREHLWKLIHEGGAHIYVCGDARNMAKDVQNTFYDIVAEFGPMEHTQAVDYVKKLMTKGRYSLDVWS

SMILES: CC(=O)[C@H]1CC[C@H]2[C@@H]3CCC4=CC(=O)CC[C@]4(C)[C@H]3CC[C@]12C [PRG, progesterone]
- pKd: 4.46
